Reference: ChEMBL document CHEMBL1137895, “Synthesis and activity of 2-[4-(4-[3H]-2-cyanophenyl)piperazinyl]-N-(2,4,6-[3H]3-3-methylphenyl)acetamide: a selective dopamine D4 receptor agonist and radioligand” (Bioorg Med Chem Lett, 2004)

biological target: T1, D(4) dopamine receptor (Homo sapiens, UniProt P21917); assay: In vitro ability to inhibit [3H]6b binding to human Dopamine receptor D4.4
T1 sequence (P21917 whole entry): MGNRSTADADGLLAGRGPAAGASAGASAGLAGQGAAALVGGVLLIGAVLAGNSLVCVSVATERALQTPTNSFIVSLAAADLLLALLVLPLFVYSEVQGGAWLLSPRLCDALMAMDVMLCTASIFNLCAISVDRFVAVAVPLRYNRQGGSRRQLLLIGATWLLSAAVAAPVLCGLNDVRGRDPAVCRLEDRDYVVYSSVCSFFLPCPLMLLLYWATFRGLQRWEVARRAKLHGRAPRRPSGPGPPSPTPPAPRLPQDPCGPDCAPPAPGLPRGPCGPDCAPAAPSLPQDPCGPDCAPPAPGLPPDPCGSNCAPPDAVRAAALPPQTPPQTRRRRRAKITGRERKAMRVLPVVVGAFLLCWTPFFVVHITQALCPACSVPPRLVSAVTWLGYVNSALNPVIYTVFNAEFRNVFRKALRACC

Row | Ki [nM] | SMILES
1 | 88.9 | COc1ccc(N2CCN(CC(=O)Nc3cccc(C)c3)CC2)cc1
2 | 1.8 | COc1ccccc1N1CCN(CC(=O)Nc2cccc(C)c2)CC1
3 | 14 | Cc1cc(NC(=O)CN2CCN(c3ccc(Br)cc3C#N)CC2)ccc1Br
4 | 90.7 | Cc1cccc(NC(=O)CN2CCN(c3ccc(F)cc3)CC2)c1
5 | 39.1 | COc1cccc(N2CCN(CC(=O)Nc3cccc(C)c3)CC2)c1

biological target: T1, D(4) dopamine receptor; assay: In vitro ability to inhibit [3H]spiperone binding to human Dopamine receptor D4.4

Row | Ki [nM] | SMILES
6 | 101 | COc1ccc(N2CCN(CC(=O)Nc3cccc(C)c3)CC2)cc1
7 | 54.2 | Cc1cc(NC(=O)CN2CCN(c3ccc(Br)cc3C#N)CC2)ccc1Br
8 | 61.9 | Cc1cccc(NC(=O)CN2CCN(c3ccc(F)cc3)CC2)c1
9 | 46 | COc1cccc(N2CCN(CC(=O)Nc3cccc(C)c3)CC2)c1

biological target: T2, D(4) dopamine receptor (Homo sapiens) (UniProt P21917); assay: Efficacy in calcium flux assay using HEK293 cells co-transfected with human Dopamine receptor D4.4 and G-alpha-qo5 relative to 10 uM dopamine; assay type: functional, cell-based
T2 sequence (whole entry): T1 sequence (P21917 whole entry)

Row | E [%] | SMILES
10 | 60 | COc1ccccc1N1CCN(CC(=O)Nc2cccc(C)c2)CC1

biological target: T1, D(4) dopamine receptor; assay: In vitro ability to inhibit [3H]spiperone binding to human Dopamine receptor D4.4 allele

Row | Ki [nM] | SMILES
11 | 0.7 | COc1ccccc1N1CCN(CC(=O)Nc2cccc(C)c2)CC1

biological target: T1, D(4) dopamine receptor; assay: Agonist activity was calculated in calcium flux assay using HEK293 cells co-transfected with human Dopamine receptor D4.4 and Galphaqo5; assay type: functional, cell-based

Row | EC50 [µM] | SMILES
12 | > 10 | COc1ccc(N2CCN(CC(=O)Nc3cccc(C)c3)CC2)cc1
13 | 0.0268 | COc1ccccc1N1CCN(CC(=O)Nc2cccc(C)c2)CC1
14 | > 10 | Cc1cc(NC(=O)CN2CCN(c3ccc(Br)cc3C#N)CC2)ccc1Br
15 | > 10 | Cc1cccc(NC(=O)CN2CCN(c3ccc(F)cc3)CC2)c1
16 | > 10 | COc1cccc(N2CCN(CC(=O)Nc3cccc(C)c3)CC2)c1
